For assay [1], the target named is human CDK4 and genetically truncated (1-264) cyclin D3 (Homo sapiens, UniProt P11802). The assay is described as follows: Inhibition of CDK4/Cyclin D Retinoblastoma Kinase Activity. The following applies: for Ki: apparent Ki, CDK4/truncated cyclin D3, Rb fragment substrate, 25 μM ATP. The class given is biochemical. The method, boiled down: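 Human CDK4/truncated cyclin D3 (1-264) complex from baculovirus-infected insect cells, 5 nM, phosphorylating Rb fragment (residues 386-928, His-tagged) with 25 μM [32/33P]ATP in HEPES pH 7.4, MgCl2, 2% DMSO at 30° C. for 20 min (60 min for tight binders). Filter-captured radioactivity by phosphorimager; apparent Ki from competitive or tight-binding fits.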
Sequence of human CDK4 and genetically truncated (1-264) cyclin D3 (P11802 whole entry, the tested form may be a part): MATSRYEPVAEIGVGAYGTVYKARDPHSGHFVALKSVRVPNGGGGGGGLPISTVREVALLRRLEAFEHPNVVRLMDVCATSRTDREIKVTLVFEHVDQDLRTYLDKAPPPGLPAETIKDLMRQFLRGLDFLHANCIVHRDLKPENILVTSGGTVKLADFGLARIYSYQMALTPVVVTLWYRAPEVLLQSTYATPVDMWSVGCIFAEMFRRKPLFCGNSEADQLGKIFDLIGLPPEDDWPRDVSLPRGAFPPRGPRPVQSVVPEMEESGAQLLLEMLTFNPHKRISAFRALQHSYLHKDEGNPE
Sequence of human CDK4 and genetically truncated (1-264) cyclin D3 (P30281 1-264 partner): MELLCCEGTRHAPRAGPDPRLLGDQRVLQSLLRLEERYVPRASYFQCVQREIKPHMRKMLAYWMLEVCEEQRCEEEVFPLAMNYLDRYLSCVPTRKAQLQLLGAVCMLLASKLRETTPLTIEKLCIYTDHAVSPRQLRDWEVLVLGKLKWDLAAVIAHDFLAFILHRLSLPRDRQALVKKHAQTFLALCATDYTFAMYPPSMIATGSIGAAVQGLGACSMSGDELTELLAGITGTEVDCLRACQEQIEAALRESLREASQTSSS

In a further assay the test system is HCT-116 cell line. Put plainly: Inhibition of cell growth, tetrazolium salt (MTT) assay. The class given is cell-based. The following applies: for HCT-116 % Inhibition at 0.25 μM: 0.25 μM compound; for IC50: Homo sapiens, HCT-116, 120 h, MTT, three to five days, read-out: HCT-116 IC50. The method, boiled down:
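HCT-116 cells in McCoy's 5A medium received compound 4 h after plating (0.5% v/v DMSO) and were incubated three to five days at 37° C, 5% CO2. MTT (0.2 mg/mL final) then added for 4 h; DMSO-solubilized formazan read at 540 nm against 0.5% DMSO-treated controls.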

The target in the next assay is CDK2/Cyclin A (Homo sapiens, UniProt P24941). Put plainly: Inhibition of CDK2/Cyclin A Retinoblastoma Kinase Activity. The following applies: for Ki: apparent Ki, CDK2/proteolyzed cyclin A, Rb fragment substrate, 25 μM ATP. The class given is biochemical. The method, boiled down: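 Baculovirus-expressed CDK2 complexed with proteolyzed cyclin A (10 or 19 nM), Rb fragment substrate, 25 μM [32P/33P]ATP, HEPES pH 7.4, 30 °C for 60 or 75 min under initial-rate conditions. Filter capture and phosphorimager readout; apparent Ki fitted to competitive or tight-binding competitive inhibition.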

[2] abbreviates: 0.1 μM compound, HCT-116, Table 3.
The mark [3] stands for this setting: 0.1 μM compound, HCT-116, Table 4.

Molecules are shown by their SMILES. Where a name gives a salt, the structure may show the parent alone. Read-outs that look alike come from different tables or passages of the source. Bounds are passed on as bounds.

For the molecule `CCCCOc1ccc(C(C)(C)CC(C)(C)C)cc1S(=O)(=O)N1CCC(Nc2nc(N)c(C(=O)c3c(F)cccc3F)s2)CC1` [Example P73], the “CDK4 % Inhibition at 0.03 μM” value in assay [1] (0.03 μM compound, Table 3) was 1%. Besides, the “HCT-116 % Inhibition at 0.1 μM” value in the assay on HCT-116 cell line (setting [2]) came to 16%. In addition, the “HCT-116 % Inhibition at 0.25 μM” value in the assay on HCT-116 cell line (HCT-116, Table 3) was 30%. Besides, the “CDK2 % Inhibition at 0.03 μM” value on CDK2/Cyclin A (0.03 μM compound, Table 3) is reported as −28%.
With `Nc1nc(NC2CCN(C(=O)c3ccc(F)c(F)c3)CC2)sc1C(=O)c1c(F)cccc1F` [Example Q73], the “CDK4 % Inhibition at 0.03 μM” value in assay [1] (0.03 μM compound, Table 4) was found to be 78%. In the assay with HCT-116 cell line (setting [3]), the “HCT-116 % Inhibition at 0.1 μM” value is 3%. In addition, the “HCT-116 % Inhibition at 0.25 μM” value in the assay with HCT-116 cell line (HCT-116, Table 4) came to 33%. Moreover, the “CDK2 % Inhibition at 0.03 μM” value on CDK2/Cyclin A (0.03 μM compound, Table 4) worked out at 52%.
With `COC(=O)c1sccc1S(=O)(=O)N1CCC(Nc2nc(N)c(C(=O)c3c(F)cccc3F)s2)CC1` [Example P63], in assay [1] (0.03 μM compound, Table 3), the “CDK4 % Inhibition at 0.03 μM” value is on record as 66%. Besides, in the assay with HCT-116 cell line (setting [2]), the “HCT-116 % Inhibition at 0.1 μM” value worked out at 23%. Moreover, the “HCT-116 % Inhibition at 0.25 μM” value in the assay on HCT-116 cell line (HCT-116, Table 3) is 40%. The “CDK2 % Inhibition at 0.03 μM” value on CDK2/Cyclin A (0.03 μM compound, Table 3) is reported as 71%.
`CN1CCN(Cc2ccc(S(=O)(=O)N3CCC(Nc4nc(N)c(C(=O)c5c(F)cccc5F)s4)CC3)cc2)CC1` [Example J7]: the Ki in assay [1] was determined as 0.00078 µM; on CDK2/Cyclin A, 0.0019 µM. Moreover, the IC50 in the assay on HCT-116 cell line (first HCT-116 column (c4)) was determined as 0.13 µM; in the assay with HCT-116 cell line (second HCT-116 column (c5)), 0.3 µM.
As for `Nc1nc(NC2CCN(C(=O)c3cccc(Cl)c3)CC2)sc1C(=O)c1c(F)cccc1F` [Example Q19], the “CDK4 % Inhibition at 0.03 μM” value in assay [1] (0.03 μM compound, Table 4) was 59%. In addition, the “HCT-116 % Inhibition at 0.1 μM” value with HCT-116 cell line (setting [3]) is 32%. Further, the “HCT-116 % Inhibition at 0.25 μM” value with HCT-116 cell line (HCT-116, Table 4) was found to be 83%. For the same molecule, the “CDK2 % Inhibition at 0.03 μM” value at CDK2/Cyclin A (0.03 μM compound, Table 4) stood at 21%.
On to `Nc1nc(NC2CCN(S(=O)(=O)CCCN3CCCCC3)CC2)sc1C(=O)c1c(F)cccc1F` [Example K7, 1-(4-Amino-2-{1-[3-(piperidin-1-yl)propane-1-sulfonyl]-piperidin-4-ylamino}-thiazol-5-yl)-1-(2,6-difluoro-phenyl)-methanone.], for which the Ki in assay [1] was 0.0029 µM; on CDK2/Cyclin A, 0.002 µM. Besides, the values for the half-inhibitory concentration (IC50) in the assay with HCT-116 cell line (first HCT-116 column (c4)) and with HCT-116 cell line (second HCT-116 column (c5)) were 0.21 µM and 1.7 µM, respectively.
Turning to `Nc1nc(NC2CCN(C(=O)c3ccc(C(F)(F)F)cc3)CC2)sc1C(=O)c1c(F)cccc1F` [Example Q33], the “CDK4 % Inhibition at 0.03 μM” value in assay [1] (0.03 μM compound, Table 4) turned out to be 65%. In addition, the “HCT-116 % Inhibition at 0.1 μM” value in the assay with HCT-116 cell line (setting [3]) is recorded as 0%. Further, the “HCT-116 % Inhibition at 0.25 μM” value in the assay on HCT-116 cell line (HCT-116, Table 4) is 16%. Also, the “CDK2 % Inhibition at 0.03 μM” value on CDK2/Cyclin A (0.03 μM compound, Table 4) is reported as 23%.
On the same counts, the results for `COc1ccc(CC(=O)N2CCC(Nc3nc(N)c(C(=O)c4c(F)cccc4F)s3)CC2)cc1OC` [Example Q72] are 43%, 8%, 29% and 18%.
For `N#Cc1ccc(S(=O)(=O)N2CCCC(Nc3nc(N)c(C(=O)c4c(F)cccc4F)s3)C2)cc1` (stereo not shown) [Example F35, 4-{3-[4-Amino-5-(2,6-difluoro-benzoyl)-thiazol-2-ylamino]-piperidine-1-sulfonyl}-benzonitrile], the Ki came to 0.34 µM in assay [1] and 0.076 µM at CDK2/Cyclin A. For the same molecule, the IC50 in the assay with HCT-116 cell line (first HCT-116 column (c4)) worked out at 1.6 µM; in the assay with HCT-116 cell line (second HCT-116 column (c5)), 2.6 µM.
For the molecule `N=C(N)c1ccc(S(=O)(=O)N2CCC(Nc3nc(N)c(C(=O)c4c(F)cccc4F)s3)CC2)cc1` [Example J3, 4-(4-{4-Amino-5-[1-(2,6-difluoro-phenyl)-methanoyl]-thiazol-2-ylamino}-piperidine-1-sulfonyl)-benzamidine], the Ki in assay [1] was 0.00025 µM; at CDK2/Cyclin A, below 0.001 µM. Moreover, the IC50 in the assay with HCT-116 cell line (first HCT-116 column (c4)) and in the assay on HCT-116 cell line (second HCT-116 column (c5)) was above 5 µM throughout.
`Cc1onc(-c2ccccc2Cl)c1C(=O)N1CCC(Nc2nc(N)c(C(=O)c3c(F)cccc3F)s2)CC1` [Example R11]: in assay [1] (at 0.03 μM), the “CDK4 % Inhibition at 0.03 μM” value was found to be 49%. Moreover, the “HCT-116 % Inhibition at 0.1 μM” value with HCT-116 cell line (HCT-116 cells, at 0.1 μM) was 0%. Further, the “HCT-116 5 Inhibition at 0.25 μM” value with HCT-116 cell line (HCT-116 cells, at 0.25 μM) stood at 37. Further, at CDK2/Cyclin A (at 0.03 μM), the “CDK2 % Inhibition at 0.03 μM” value amounted to 4%.
For `Nc1nc(NC2CCN(S(=O)(=O)c3ccc(Br)cc3)CC2)sc1C(=O)c1c(F)cccc1F` [Example P12], the “CDK4 % Inhibition at 0.03 μM” value in assay [1] (0.03 μM compound, Table 3) was 54%. Besides, in the assay with HCT-116 cell line (setting [2]), the “HCT-116 % Inhibition at 0.1 μM” value was determined as 24%. In the assay with HCT-116 cell line (HCT-116, Table 3), the “HCT-116 % Inhibition at 0.25 μM” value was 29%. Moreover, the “CDK2 % Inhibition at 0.03 μM” value on CDK2/Cyclin A (0.03 μM compound, Table 3) amounted to 54%.
Take `CC(CN(C)C)Oc1ccc(S(=O)(=O)N2CCC(Nc3nc(N)c(C(=O)c4c(F)cccc4F)s3)CC2)cn1` (racemic) [Example H13, 1-(4-Amino-2-{1-[6-(2-dimethylamino-1RS-methyl-ethoxy)-pyridine-3-sulfonyl]-piperidin-4-ylamino}-thiazol-5-yl)-1-(2,6-fifluoro-phenyl)-methanone Dihydrochloride]: the results for the Ki (in assay [1]; on CDK2/Cyclin A) were 0.00065 µM and 0.0011 µM, respectively. The IC50 in the assay with HCT-116 cell line (first HCT-116 column (c4)) amounted to 0.09 µM; in the assay on HCT-116 cell line (second HCT-116 column (c5)) it was 0.4 µM.

As usually defined, the IC50 is the concentration that gives 50% inhibition.
